Laboratory results: patent US9533987B2, “Heterocyclic derivates” (KALVISTA PHARMACEUTICALS LIMITED, priority 2013, dated 2017)

Tests used:
Human plasma kallikrein = Human plasma kallikrein (Homo sapiens (Human), UniProt P03952); test: Determination of the IC50 for plasma kallikrein (fluorogenic substrate H-DPro-Phe-Arg-AFC); assay type: biochemical; conditions: 37° C., read-out: IC50 (human PKaI)
Protocol: Determination of the IC50 for Plasma Kallikrein
(§1) Human plasma kallikrein (Protogen) was incubated at 37° C. with the fluorogenic substrate H-DPro-Phe-Arg-AFC and various concentrations of the test compound. Residual enzyme activity (initial rate of reaction) was determined by measuring the change in […] at 410 nm and the IC50 value for the test compound was determined.

Human KLK1 = Human KLK1 (Homo sapiens (Human), UniProt P06870); test: Determination of the IC50 for KLK1 (fluorogenic substrate H-DVal-Leu-Arg-AFC); assay type: biochemical; conditions: 37° C.
Protocol: Determination of the IC50 for KLK1
as §1, with “KLK1 (Callbiochem)” for “plasma kallikrein (Protogen)”, “H-DVal-Leu-Arg-AFC” for “H-DPro-Phe-Arg-AFC”

Sequence of Human KLK1 (P06870 25-262): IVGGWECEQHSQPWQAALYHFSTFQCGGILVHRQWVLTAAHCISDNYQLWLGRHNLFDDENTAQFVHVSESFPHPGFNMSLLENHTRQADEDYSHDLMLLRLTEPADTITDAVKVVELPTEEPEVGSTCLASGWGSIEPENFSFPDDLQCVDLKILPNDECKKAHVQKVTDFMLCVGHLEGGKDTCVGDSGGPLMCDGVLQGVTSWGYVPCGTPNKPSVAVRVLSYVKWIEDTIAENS
Sequence of Human plasma kallikrein (P03952 391-638): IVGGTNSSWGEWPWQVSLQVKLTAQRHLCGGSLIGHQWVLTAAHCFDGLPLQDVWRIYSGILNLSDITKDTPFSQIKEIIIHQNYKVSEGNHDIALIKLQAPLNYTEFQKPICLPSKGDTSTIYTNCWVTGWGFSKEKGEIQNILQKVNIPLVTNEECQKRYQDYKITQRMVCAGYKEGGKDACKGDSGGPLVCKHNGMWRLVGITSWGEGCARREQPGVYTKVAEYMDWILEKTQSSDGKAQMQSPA
Sequence of Human plasma kallikrein (P03952 20-390 partner): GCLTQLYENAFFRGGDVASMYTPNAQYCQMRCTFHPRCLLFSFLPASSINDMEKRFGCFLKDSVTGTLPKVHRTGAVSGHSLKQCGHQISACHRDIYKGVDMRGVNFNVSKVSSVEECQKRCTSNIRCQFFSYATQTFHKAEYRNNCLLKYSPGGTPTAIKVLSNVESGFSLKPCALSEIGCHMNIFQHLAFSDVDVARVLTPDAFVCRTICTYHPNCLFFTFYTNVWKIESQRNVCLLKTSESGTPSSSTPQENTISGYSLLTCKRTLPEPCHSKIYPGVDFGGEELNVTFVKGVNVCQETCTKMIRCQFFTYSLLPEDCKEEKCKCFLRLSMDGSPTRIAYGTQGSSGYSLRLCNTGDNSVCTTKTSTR

| SMILES | IC50 (Human plasma kallikrein) | IC50 (Human KLK1) |
| --- | --- | --- |
| CCOc1cc(Cn2cc(C(=O)NCc3ccc4c(N)nccc4c3)c(C(F)(F)F)n2)cnc1Cl [Example 74, 1-(6-Chloro-5-ethoxy-pyridin-3-ylmethyl)-3-trifluoromethyl-1H-pyrazole-4-carboxylic acid (1-amino-isoquinolin-6-ylmethyl)-amide] | 425 nM | 2770 nM |
| CCOc1ncc(Cn2cc(C(=O)NCc3ccc4c(N)nccc4c3)c(C(F)(F)F)n2)cc1F [Example 75, 1-(6-Ethoxy-5-fluoro-pyridin-3-ylmethyl)-3-trifluoromethyl-1H-pyrazole-4-carboxylic acid (1-amino-isoquinolin-6-ylmethyl)-amide] | 98.3 nM | 1300 nM |
| Nc1nccc2cc(CNC(=O)c3cn(Cc4ccc(Cn5cccn5)cc4)nc3C(F)(F)F)ccc12 [Example 76, 1-(4-Pyrazol-1-ylmethyl-benzyl)-3-trifluoromethyl-1H-pyrazole-4-carboxylic acid (1-amino-isoquinolin-6-ylmethyl)-amide] | 0.92 nM | > 1000 nM |
| N#Cc1cnn(Cc2ccc(Cn3cc(C(=O)NCc4ccc5c(N)nccc5c4)c(C(F)(F)F)n3)cc2)c1 [Example 77, 1-[4-(4-Cyano-pyrazol-1-ylmethyl)-benzyl]-3-trifluoromethyl-1H-pyrazole-4-carboxylic acid (1-amino-isoquinolin-6-ylmethyl)-amide] | 85.4 nM | > 10000 nM |
| NC(=O)c1cnn(Cc2ccc(Cn3cc(C(=O)NCc4ccc5c(N)nccc5c4)c(C(F)(F)F)n3)cc2)c1 [Example 78, 1-[4-(4-Carbamoyl-pyrazol-1-ylmethyl)-benzyl]-3-trifluoromethyl-1H-pyrazole-4-carboxylic acid (1-amino-isoquinolin-6-ylmethyl)-amide] | 91.1 nM | > 10000 nM |
| Nc1nccc2cc(CNC(=O)c3cn(Cc4ccc(Cn5cccn5)nc4)nc3C(F)(F)F)ccc12 [Example 79, 1-(6-Pyrazol-1-ylmethyl-pyridin-3-ylmethyl)-3-trifluoromethyl-1H-pyrazole-4-carboxylic acid (1-amino-isoquinolin-6-ylmethyl)-amide] | 2.29 nM | > 10000 nM |
| CCOc1cc(Cn2cc(C(=O)NCc3ccc4c(N)nccc4c3)c(C(F)(F)F)n2)ccn1 [Example 80, 1-(2-Ethoxy-pyridin-4-ylmethyl)-3-trifluoromethyl-1H-pyrazole-4-carboxylic acid (1-amino-isoquinolin-6-ylmethyl)-amide] | 206 nM | 9280 nM |
| Nc1nccc2cc(CNC(=O)c3cn(Cc4csc(Cn5cccn5)n4)nc3C(F)(F)F)ccc12 [Example 81, 1-(2-Pyrazol-1-ylmethyl-thiazol-4-ylmethyl)-3-trifluoromethyl-1H-pyrazole-4-carboxylic acid (1-amino-isoquinolin-6-ylmethyl)-amide] | 26.5 nM | 8970 nM |
| Cc1cnn(Cc2nc(Cn3cc(C(=O)NCc4ccc5c(N)nccc5c4)c(C(F)(F)F)n3)cs2)c1 [Example 82, 1-[2-(4-Methyl-pyrazol-1-ylmethyl)-thiazol-4-ylmethyl]-3-trifluoromethyl-1H-pyrazole-4-carboxylic acid (1-amino-isoquinolin-6-ylmethyl)-amide] | 21.2 nM | 4710 nM |
| COCCN(C)c1ccc(Cn2cc(C(=O)NCc3ccc4c(N)nccc4c3)c(C3CC3)n2)cn1 [Example 86, 3-Cyclopropyl-1-{6-[(2-methoxy-ethyl)-methyl-amino]-pyridin-3-ylmethyl}-1H-pyrazole-4-carboxylic acid (1-amino-isoquinolin-6-ylmethyl)-amide] | 56.1 nM | 8790 nM |
| Nc1nccc2cc(CNC(=O)c3cn(Cc4ccc(N5CCC(F)(F)C5)nc4)nc3C3CC3)ccc12 [Example 87, 3-Cyclopropyl-1-[6-(3,3-difluoro-pyrrolidin-1-yl)-pyridin-3-ylmethyl]-1H-pyrazole-4-carboxylic acid (1-amino-isoquinolin-6-ylmethyl)-amide] | 23.2 nM | 6460 nM |
| COc1cc(Cn2cc(C(=O)NCc3ccc4c(N)nccc4c3)c(C3CC3)n2)cc(N2CCCC2)n1 [Example 88, 3-Cyclopropyl-1-(2-methoxy-6-pyrrolidin-1-yl-pyridin-4-ylmethyl)-1H-pyrazole-4-carboxylic acid (1-amino-isoquinolin-6-ylmethyl)-amide] | 112 nM | 9630 nM |
| COc1cc(N2CCCC2)ncc1Cn1cc(C(=O)NCc2ccc3c(N)nccc3c2)c(C2CC2)n1 [Example 89, 3-Cyclopropyl-1-(4-methoxy-6-pyrrolidin-1-yl-pyridin-3-ylmethyl)-1H-pyrazole-4-carboxylic acid (1-amino-isoquinolin-6-ylmethyl)-amide] | 17.8 nM | 960 nM |
| Nc1nccc2cc(CNC(=O)c3cn(Cc4ccc(N5CCCC5)nc4)nc3C3CC3)ccc12 [Example 90, 3-Cyclopropyl-1-(6-pyrrolidin-1-yl-pyridin-3-ylmethyl)-1H-pyrazole-4-carboxylic acid (1-amino-isoquinolin-6-ylmethyl)-amide] | 11.6 nM | 4700 nM |
| Nc1nccc2cc(CNC(=O)c3cn(Cc4ccc(Cn5ccnn5)cc4)nc3C3CC3)ccc12 [Example 91, 3-Cyclopropyl-1-(4-[1,2,3]triazol-1-ylmethyl-benzyl)-1H-pyrazole-4-carboxylic acid (1-amino-isoquinolin-6-ylmethyl)-amide] | 13.8 nM | > 10000 nM |
| Nc1nccc2cc(CNC(=O)c3cn(Cc4ccc(OCC(F)(F)F)nc4)nc3C3CC3)ccc12 [Example 92, 3-Cyclopropyl-1-[6-(2,2,2-trifluoro-ethoxy)-pyridin-3-ylmethyl]-1H-pyrazole-4-carboxylic acid (1-amino-isoquinolin-6-ylmethyl)-amide] | 109 nM | > 10000 nM |
| Nc1nccc2cc(CNC(=O)c3cn(Cc4ccc(Oc5ccccc5)nc4)nc3C3CC3)ccc12 [Example 93, 3-Cyclopropyl-1-(6-phenoxy-pyridin-3-ylmethyl)-1H-pyrazole-4-carboxylic acid (1-amino-isoquinolin-6-ylmethyl)-amide] | 75.1 nM | > 10000 nM |
| CCOc1ncc(Cn2cc(C(=O)NCc3ccc4c(N)nccc4c3)c(C3CC3)n2)cc1Cl [Example 94, 1-(5-Chloro-6-ethoxy-pyridin-3-ylmethyl)-3-cyclopropyl-1H-pyrazole-4-carboxylic acid (1-amino-isoquinolin-6-ylmethyl)-amide] | 53.2 nM | 2000 nM |
| CCN(CC)c1ncc(Cn2cc(C(=O)NCc3ccc4c(N)nccc4c3)c(C3CC3)n2)cc1F [Example 95, 3-Cyclopropyl-1-(6-diethylamino-5-fluoro-pyridin-3-ylmethyl)-1H-pyrazole-4-carboxylic acid (1-amino-isoquinolin-6-ylmethyl)-amide] | 34 nM | 9640 nM |
| Nc1nccc2cc(CNC(=O)c3cn(Cc4cnc(N5CCCC5)c(Cl)c4)nc3C3CC3)ccc12 [Example 97, 1-(5-Chloro-6-pyrrolidin-1-yl-pyridin-3-ylmethyl)-3-cyclopropyl-1H-pyrazole-4-carboxylic acid (1-amino-isoquinolin-6-ylmethyl)-amide] | 18.5 nM | 3010 nM |
| CCOc1ccc(Cn2cc(C(=O)NCc3ccc4c(N)nccc4c3)c(N)n2)cn1 [Example 98, 3-Amino-1-(6-ethoxy-pyridin-3-ylmethyl)-1H-pyrazole-4-carboxylic acid (1-amino-isoquinolin-6-ylmethyl)-amide] | 62.4 nM | 3140 nM |
